Measurements: ChEMBL document CHEMBL3352564, “Synthesis, Structure, and SAR of Tetrahydropyran-Based LpxC Inhibitors” (ACS Med Chem Lett, 2014)
≈ marks a conversion by molar mass, not a printed value.

Columns and labels:
[1] = biological target: T1, UDP-3-O-acyl-N-acetylglucosamine deacetylase (Pseudomonas aeruginosa (strain ATCC 15692 / PAO1 / 1C / PRS 101 / LMG12228), UniProt P47205); test: Inhibition of Pseudomonas aeruginosa LpxC using UDP-3-O-(R-3-hydroxydecanoyl)-N-acetylglucosamine as substrate preincubated for 20 mins before substrate addition by LC/MS/MS analysis
T1 sequence (P47205 whole entry): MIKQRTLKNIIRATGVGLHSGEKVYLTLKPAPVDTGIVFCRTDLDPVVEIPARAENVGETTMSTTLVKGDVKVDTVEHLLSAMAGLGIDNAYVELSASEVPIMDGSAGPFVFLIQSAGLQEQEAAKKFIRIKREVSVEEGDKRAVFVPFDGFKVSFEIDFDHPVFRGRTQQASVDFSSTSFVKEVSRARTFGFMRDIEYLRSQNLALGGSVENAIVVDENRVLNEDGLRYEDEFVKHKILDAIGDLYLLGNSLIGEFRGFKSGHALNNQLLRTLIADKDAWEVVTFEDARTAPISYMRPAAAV

[2] = system: Pseudomonas aeruginosa; test: Antimicrobial activity against MexABCDXY-deficient Pseudomonas aeruginosa PAO1 ARC546 by CLSI dilution method; assay type: functional
[3] = system: Pseudomonas aeruginosa; test: Antimicrobial activity against Pseudomonas aeruginosa PAO1 ARC545 by CLSI dilution method; assay type: functional
[4] = system: Escherichia coli; test: Antimicrobial activity against TolC-deficient Escherichia coli ARC524 W3110 harboring mutant by CLSI dilution method; assay type: functional
[5] = system: Escherichia coli; test: Antimicrobial activity against Escherichia coli ARC523 W3110 harboring mutant by CLSI dilution method; assay type: functional
[6] = biological target: 72 kDa type IV collagenase (Homo sapiens) (UniProt P08253); test: Inhibition of MMP2 (unknown origin) at 10 uM
Sequence of 72 kDa type IV collagenase (Homo sapiens) (P08253 110-660 limits assumed): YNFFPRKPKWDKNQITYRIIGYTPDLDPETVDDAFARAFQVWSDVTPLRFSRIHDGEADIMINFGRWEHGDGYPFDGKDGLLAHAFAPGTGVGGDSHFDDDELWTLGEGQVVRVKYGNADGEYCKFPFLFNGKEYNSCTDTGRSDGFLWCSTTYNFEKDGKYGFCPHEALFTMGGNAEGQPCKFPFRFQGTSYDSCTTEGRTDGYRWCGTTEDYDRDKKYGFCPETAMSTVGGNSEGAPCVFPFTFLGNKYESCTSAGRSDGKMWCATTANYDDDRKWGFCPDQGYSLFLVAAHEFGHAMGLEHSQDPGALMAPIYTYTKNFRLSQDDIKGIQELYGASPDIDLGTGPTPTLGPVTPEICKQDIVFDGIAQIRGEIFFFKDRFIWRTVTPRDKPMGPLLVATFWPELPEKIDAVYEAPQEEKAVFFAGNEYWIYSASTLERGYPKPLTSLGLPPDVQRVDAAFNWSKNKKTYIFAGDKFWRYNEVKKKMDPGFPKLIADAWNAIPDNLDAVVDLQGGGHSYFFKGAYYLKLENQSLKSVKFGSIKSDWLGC

[7] = biological target: Collagenase 3 (Homo sapiens) (UniProt P45452); test: Inhibition of MMP13 (unknown origin) at 10 uM
[8] = biological target: 72 kDa type IV collagenase (Homo sapiens) (UniProt P08253); test: Inhibition of MMP2 (unknown origin) at 30 uM
[9] = biological target: Collagenase 3 (Homo sapiens) (UniProt P45452); test: Inhibition of MMP13 (unknown origin) at 30 uM
[10] = biological target: Collagenase 3 (Homo sapiens) (UniProt P45452); test: Inhibition of MMP13 (unknown origin) at 15 uM

## C[C@@H]1CN(Cc2ccc(C#Cc3ccc(OCC4(C(=O)NO)CCOCC4)cc3)cc2)C[C@H](C)O1
[1]
  IC50: 2.6 nM
[2]
  MIC: 3.13 µM (≈ 1.5 µg/mL)
[3]
  MIC: > 200 µM
[4]
  MIC: 0.39 µM (≈ 0.187 µg/mL)
[5]
  MIC: 12.5 µM (≈ 5.98 µg/mL)
[6]
  inhibition: 92%
[7]
  inhibition: 75%

## CN1CCN(Cc2ccc(C#Cc3ccc(OCC4(C(=O)NO)CCOCC4)cc3)cc2)CC1
[1]
  IC50: 6.1 nM
[2]
  MIC: 1.56 µM (≈ 0.723 µg/mL)
[3]
  MIC: 100 µM (≈ 46.4 µg/mL)
[4]
  MIC: 3.13 µM (≈ 1.45 µg/mL)
[5]
  MIC: 50 µM (≈ 23.2 µg/mL)

## O=C(NO)C1(CSc2ccc(C#Cc3ccc(CN4CCOCC4)cc3)cc2)CCOCC1
[1]
  IC50: 0.2 nM
[2]
  MIC: 0.39 µM (≈ 0.182 µg/mL)
[3]
  MIC: 25 µM (≈ 11.7 µg/mL)
[4]
  MIC: < 0.2 µM
[5]
  MIC: 3.13 µM (≈ 1.46 µg/mL)

## COc1ccc(CNCc2ccc(C#Cc3ccc(OCC4(C(=O)NO)CCOCC4)cc3)cc2)cc1
[1]
  IC50: 10 nM
[2]
  MIC: 6.25 µM (≈ 3.13 µg/mL)
[3]
  MIC: 100 µM (≈ 50.1 µg/mL)
[4]
  MIC: 12.5 µM (≈ 6.26 µg/mL)
[5]
  MIC: 50 µM (≈ 25 µg/mL)

## O=C(NO)C1(COc2ccc(OCc3ccccc3)cc2)CCOCC1
[1]
  IC50: 14 nM
[2]
  MIC: 6.25 µM (≈ 2.23 µg/mL)
[3]
  MIC: 200 µM (≈ 71.5 µg/mL)
[4]
  MIC: 200 µM (≈ 71.5 µg/mL)
[5]
  MIC: > 200 µM

## O=C(NO)C1(COc2ccc(C#CC#Cc3ccccc3)cc2)CCOCC1
[1]
  IC50: 33 nM
[2]
  MIC: > 200 µM
[3]
  MIC: > 200 µM
[4]
  MIC: 50 µM (≈ 18.8 µg/mL)
[5]
  MIC: 200 µM (≈ 75.1 µg/mL)

## CC(=O)N1CCN(Cc2ccc(C#Cc3ccc(OCC4(C(=O)NO)CCOCC4)cc3)cc2)CC1
[1]
  IC50: 3 nM
[2]
  MIC: 0.78 µM (≈ 0.383 µg/mL)
[3]
  MIC: 50 µM (≈ 24.6 µg/mL)
[4]
  MIC: 0.39 µM (≈ 0.192 µg/mL)
[5]
  MIC: 25 µM (≈ 12.3 µg/mL)

## O=C(NO)C1(COc2ccc(C#Cc3ccc(CN4CCOCC4)cc3)cc2)CCC(O)CC1 (stereo not given)
[1]
  IC50: 82.5 nM
[2]
  MIC: 25 µM (≈ 11.6 µg/mL)
[3]
  MIC: > 200 µM
[4]
  MIC: 25 µM (≈ 11.6 µg/mL)
[5]
  MIC: > 200 µM

## C[C@@H](O)[C@H](NC(=O)c1ccc(C#Cc2ccc(CN3CCOCC3)cc2)cc1)C(=O)NO
[2]
  MIC: < 0.2 µM
[3]
  MIC: 1.56 µM (≈ 0.682 µg/mL)
[4]
  MIC: < 0.2 µM
[5]
  MIC: < 0.2 µM
[8]
  inhibition: 12%
[9]
  inhibition: 30%

## O=C(NO)C1(C[S+]([O-])c2ccc(C#Cc3ccc(CN4CCOCC4)cc3)cc2)CCOCC1 (racemic)
[1]
  IC50: 3.1 nM
[2]
  MIC: < 0.2 µM
[3]
  MIC: 25 µM (≈ 12.1 µg/mL)
[4]
  MIC: < 0.2 µM
[5]
  MIC: 1.56 µM (≈ 0.753 µg/mL)
[6]
  inhibition: 97%
[7]
  inhibition: 96%

## O=C(NO)C1(COc2ccc(C#Cc3ccc(CN4CCN(CCn5ccnc5)CC4)cc3)cc2)CCOCC1
[1]
  IC50: 2 nM
[2]
  MIC: 0.78 µM (≈ 0.424 µg/mL)
[3]
  MIC: 50 µM (≈ 27.2 µg/mL)
[4]
  MIC: 0.78 µM (≈ 0.424 µg/mL)
[5]
  MIC: 6.25 µM (≈ 3.4 µg/mL)
[6]
  inhibition: 93%
[7]
  inhibition: 80%

## CC(C)(O)C#CC#Cc1ccc(OCC2(C(=O)NO)CCOCC2)cc1
[1]
  IC50: 139 nM
[2]
  MIC: 25 µM (≈ 8.94 µg/mL)
[3]
  MIC: > 200 µM
[4]
  MIC: 6.25 µM (≈ 2.23 µg/mL)
[5]
  MIC: 200 µM (≈ 71.5 µg/mL)

## O=C(NO)C1(COc2ccc(-c3ccccc3)cc2)CCOCC1
[1]
  IC50: 8.7 nM
[2]
  MIC: 6.25 µM (≈ 2.05 µg/mL)
[3]
  MIC: 100 µM (≈ 32.7 µg/mL)
[4]
  MIC: > 200 µM
[5]
  MIC: > 200 µM

## CN(C)CC1CN(Cc2ccc(C#Cc3ccc(OCC4(C(=O)NO)CCOCC4)cc3)cc2)CCO1 (stereo not given)
[1]
  IC50: 5.8 nM
[2]
  MIC: 3.13 µM (≈ 1.59 µg/mL)
[3]
  MIC: 100 µM (≈ 50.8 µg/mL)
[4]
  MIC: 6.25 µM (≈ 3.17 µg/mL)
[5]
  MIC: 200 µM (≈ 102 µg/mL)

## O=C(NO)C1(COc2ccc(Oc3ccccc3)cc2)CCOCC1
[1]
  IC50: 92 nM
[2]
  MIC: 25 µM (≈ 8.58 µg/mL)
[3]
  MIC: > 200 µM
[4]
  MIC: > 200 µM
[5]
  MIC: > 200 µM

## O=C(NO)C1(CSc2ccc(Oc3ccc(Cl)cc3)cc2)CCOCC1
[1]
  IC50: 7.4 nM
[2]
  MIC: 6.25 µM (≈ 2.46 µg/mL)
[3]
  MIC: 50 µM (≈ 19.7 µg/mL)
[4]
  MIC: 50 µM (≈ 19.7 µg/mL)
[5]
  MIC: > 200 µM
[10]
  inhibition: 99%

## O=C(CN1CCN(Cc2ccc(C#Cc3ccc(OCC4(C(=O)NO)CCOCC4)cc3)cc2)CC1)N1CCOCC1
[1]
  IC50: 1.7 nM
[2]
  MIC: 12.5 µM (≈ 7.21 µg/mL)
[3]
  MIC: > 200 µM
[4]
  MIC: 25 µM (≈ 14.4 µg/mL)
[5]
  MIC: > 200 µM

## COC1CCC(COc2ccc(C#Cc3ccc(CN4CCOCC4)cc3)cc2)(C(=O)NO)CC1 (stereo not given)
[1]
  IC50: 8.6 nM
[2]
  MIC: 3.13 µM (≈ 1.5 µg/mL)
[3]
  MIC: > 200 µM
[4]
  MIC: 6.25 µM (≈ 2.99 µg/mL)
[5]
  MIC: 100 µM (≈ 47.9 µg/mL)

## O=C(NO)C1(COc2ccc(C#Cc3ccc(CN4CCOCC4)cc3)cc2)CCOCC1
[1]
  IC50: 4.4 nM
[2]
  MIC: 1.56 µM (≈ 0.703 µg/mL)
[3]
  MIC: 100 µM (≈ 45.1 µg/mL)
[4]
  MIC: 1.56 µM (≈ 0.703 µg/mL)
[5]
  MIC: 12.5 µM (≈ 5.63 µg/mL)
[6]
  inhibition: 94%
[7]
  inhibition: 82%

## O=C(NO)C1(COc2ccc(C#Cc3ccc(CN4CCN(CCN5CCOCC5)CC4)cc3)cc2)CCOCC1
[1]
  IC50: 2.7 nM
[2]
  MIC: 0.78 µM (≈ 0.439 µg/mL)
[3]
  MIC: 50 µM (≈ 28.1 µg/mL)
[4]
  MIC: 1.56 µM (≈ 0.878 µg/mL)
[5]
  MIC: 25 µM (≈ 14.1 µg/mL)

## CC(C)N1CCN(Cc2ccc(C#Cc3ccc(OCC4(C(=O)NO)CCOCC4)cc3)cc2)CC1
[1]
  IC50: 7.5 nM
[2]
  MIC: 3.13 µM (≈ 1.54 µg/mL)
[3]
  MIC: 100 µM (≈ 49.2 µg/mL)
[4]
  MIC: 12.5 µM (≈ 6.15 µg/mL)
[5]
  MIC: 100 µM (≈ 49.2 µg/mL)
